Measured values taken from US20250281513A1, “USE OF PS[…] TREAT […]” (priority 2021, published 2025).
Where two headings read alike, the source gives them in different places.

Tests used:
ABCF1 [1] = format: cell-based, murine; conditions: RAW264.7, 10 nM, 100 nM, 500 nM, 2 hours post treatment, normalized to GAPDH (FIG. 2)
Method: • 1. Macrophage cell line RAW264.7 (ATCC) were grown to 80% confluency in growth media (DMEM+10% FBS+glutamine). • 2. Dilutions of the drugs were made at desired final concentrations for a Dose response experiment. The concentrations' used for this experiment are: 10 nM, 100 nM, 500 nM for Psilocin, Psylocibin, 4-Acetoxy-N, N-dimthyltryptamine, O-Acetyl Psilocin Fumerate, and 4-acetoxyindole. • 3. Untreated cells were used as negative control and Escitalopram at 0.3 mM was used as a positive control to activate ABCF1 expression for all the experiments. Analysis by qPCR:
• 1. 2 hours post treatment with drugs, the reaction was stopped by removing the media with the drug. Cells were then collected and RNA was isolated from these. • 2. After checking the quality of the RNA, cDNA was generated and qPCR was run with ABCF1 primers as the target gene and GAPDH as the house keeping gene. • 3. Normalized against the expression level of GAPDH, the fold change expression level of ABCF1 was calculated and tabulated for all treatment conditions.

[2] = test system: amyloid precursor protein (APP); assay: Down regulation of APP in RAW cells by psychedelic drugs (Example 5); format: cell-based; conditions: post 2 hours treatment (FIG. 9)
ABCF1 [3] = assay: Escitalopram induces ABCF1 in a macrophage cell line (real time RT-PCR); format: cell-based; conditions: RAW macrophages, 0.3 mM, 1 hour
Method: RAW macrophages were plated at 1×10^5 cells/well and cultured for 2 days. The cells were incubated with 0.3 mM Escitalopram for 1 hour, and then harvested for total RNA, which was extracted for real time RT-PCR specific for ABCF1 and IL-4. CT values were normalized with CT value for the housekeeping gene from the DMSO control.

SMILES | ABCF1 transcription / expression (ABCF1 [1]) | amyloid precursor protein (APP) expression [2] | ABCF1 expression (ABCF1 [3]; vs DMSO control (FIG. 1)) | difference in the expression (ABCF1 and IL-4) after drug treatment (ABCF1 [3]; 3 separate experiments) | ABCF1 transcription / expression (ABCF1 [1]; listed as psylocin)
CC(=O)Oc1cccc2[nH]ccc12 [AOI, 4-acetoxyindole] | enhance expression of ABCF1 | down regulation | – | – | –
CC(=O)Oc1cccc2[nH]cc(CCN(C)C)c12.O=C(O)/C=C/C(=O)O [APF, O-Acetyl Psilocin Fumerate] | enhance expression of ABCF1 | down regulation | – | – | –
CN(C)CCC[C@@]1(c2ccc(F)cc2)OCc2cc(C#N)ccc21 [Escitalopram] | – | – | induces ABCF1 expression | consistent with polarization towards an M2-like phenotype | –
CN(C)CCc1c[nH]c2cccc(O)c12 [psilocin, 4-hydroxy-N,N-dimethyltryptamine, reference compound] | enhance expression of ABCF1 | – | – | – | upregulate ABCF1 transcription
